Columns and labels:
Gli1 transcript = assay: Quantification of Gli1 transcript by TaqMan analysis in MB cells (Hh pathway); type: cell-based, mouse; conditions: Gli1 transcript fold induction score; MB cells exposed 24 h at the IC90 for MB proliferation
Source text: Inhibitors of the Hh pathway are known to inhibit MB cell proliferation. However, MB cell proliferation is also affected by drugs with targets other than Hh signaling.
Following drug exposure, cells were washed in PBS and pelleted by centrifugation at 300×g. Cell pellets were lysed in Trizol reagent (Invitrogen). Total RNA was separated and collected in the aqueous phase following centrifugation of lysate in the presence of chloroform. Total RNA was ethanol precipitated and purified over RNeasy Mini Kit (Qiagen) filter columns per manufacturer's recommendations. Transcript levels were quantified using gene-specific TaqMan primer/probe sets and the StepOne Plus Real-Time PCR system (Applied Biosystems) on cDNA reverse transcribed using the QuantiTect Reverse Transcription Kit (Qiagen) per manufacturers' recommendations. Results were quantified using StepOne Plus software v2.1 (Applied Biosystems) and were expressed as fold induction relative to control samples using the A ΔCt (2^−ΔΔCt) method with actin as an internal control. The primer/probe set (Applied Biosystems) for TaqMan PCR for mouse Gli-1 was Mm00494645_m1, and for mouse actin was Mm00607939_s1.

VEGFR2 = VEGFR2 glycosylation in HUVEC (Western blot scoring); type: cell-based, human; conditions: VEGFR2 hypoglycosylation score in HUVEC, 2 μM, 24 h
Procedure: VEGFR2 hypoglycosylation was scored either robust (++), intermediate (+), or absent (−) (FIG. 6).
HUVEC were seeded at 5×10^4 per well of a 6-well plate in 3 mL of media. After an overnight recovery, the media was replaced with 2 mL fresh media and the analogs were added from 200× stocks in DMSO. Following a 24-h incubation, the media was aspirated and 2×SDS sample buffer was added to the cells which were incubated on ice for 10 min and then boiled for 10 min. […] Following three washes in TBS-T, the membrane was incubated with anti-rabbit horseradish peroxidase conjugated IgG (GE Healthcare) (1:5000-1:10000 dilution) in 1% BSA in TBS-T. The membranes were washed three times in TBS-T, incubated for 1-5 minutes with ECL substrate (Immobilon Wester, Milipore) and visualized (Kodak Image Staion 440 CF).

[1] = tested on: MB cultures derived from Ptch−/+; p53−/− mice; assay: Medulloblastoma (MB) proliferation assay; type: cell-based, mouse; conditions: mouse medulloblastoma cultures, 96 h; relative to itraconazole
Source text: These cultures were derived from Ptch^−/+; p53^−/− mice that spontaneously develop medulloblastoma associated with ligand independent Hh pathway activation.
MB cultures were derived from mouse Ptch^−/+; p53^−/− MB grown as hind-flank allografts in nude mice (Harlan). Briefly, tumors were mechanically disrupted and made into single cell suspensions by two passages through a 70 μm nylon filter. Cells were pelleted by centrifugation and resuspended in PBS pH 7.4 twice. The cell suspension was then subjected to centrifugation at 1000×g for 25 min over a ficoll gradient. The viable cell layer formed at the ficoll boundary was then collected, suspended in PBS, and pelleted by centrifugation. The resulting pellet was then suspended and cultured as “neurospheres” in Neurobasal Media-A supplemented with retinoic acid deficient B-27 extract (NBMedia). Cells were cultured for three passages, with neurospheres disaggregated using Accumax (Innovative Cell Technologies) between passages.
Cultured MB neurospheres were disaggregated as described and 1×10^4 cells were seeded into wells of a 96-well assay plate in NBMedia and exposed to multiple analogue concentrations: Relative cell numbers following a 96-h incubation were quantified by CellTiter 96® AQueous One Solution Cell Proliferation Assay (Promega) per manufacturer's recommendations using a SpectraMax M2e spectrophotometer and SoftMax Pro software (Molecular Devices). Data was analyzed using Prism5 (GraphPad Software) and IC50 and IC90 values were determined from dose-response curves fitted to mean corrected absorbance normalized to control treatment.

HUVEC = HUVEC proliferation assay ([3H]thymidine incorporation); type: cell-based, human; conditions: HUVEC; for Proliferation (IC50/IC50 Itra): IC50 of analog relative to IC50 of itraconazole; for IC50: Homo sapiens, 3H thymidine incorporation, in μM, read-out: Proliferation IC50
Procedure: The activity of the analogs against HUVEC proliferation, an in vitro proxy for angiogenesis inhibition (Table 3) was analyzed. […]
Pooled HUVEC (Lonza) were grown in EGM-2 bullet kit media (Lonza) and used at passage eight or lower. The proliferation assays were conducted as previously described (Nacev, B.; Low, W. K.; Huang, Z.; Su, T.; Su, Z.; Alkuraya, H.; Kasuga, D.; Sun, W.; Trager, M.; Braun, M.; Fischer, G.; Zhang, K.; Liu, J. O., Acalcineurin-independent mechanism of angiogenesis inhibition by anon-immunosuppressive Cyclosporin Aanalog. J. Pharmacol. Exp. Ther. 2011, DOI:10.1124/jpet.111.18085).

CYP3A4 = target: T1, CYP3A4 (Homo sapiens, UniProt P08684); assay: CYP3A4 enzyme assay (Vivid CYP3A4 Green Screening Kit); type: in vitro ADME; conditions: % enzyme inhibition at 1 μM drug / % enzyme inhibition at 1 μM itraconazole
T1 construct: purchased ThermoFisher P2857; host or cells: baculosomes
T1 sequence (P08684 whole entry): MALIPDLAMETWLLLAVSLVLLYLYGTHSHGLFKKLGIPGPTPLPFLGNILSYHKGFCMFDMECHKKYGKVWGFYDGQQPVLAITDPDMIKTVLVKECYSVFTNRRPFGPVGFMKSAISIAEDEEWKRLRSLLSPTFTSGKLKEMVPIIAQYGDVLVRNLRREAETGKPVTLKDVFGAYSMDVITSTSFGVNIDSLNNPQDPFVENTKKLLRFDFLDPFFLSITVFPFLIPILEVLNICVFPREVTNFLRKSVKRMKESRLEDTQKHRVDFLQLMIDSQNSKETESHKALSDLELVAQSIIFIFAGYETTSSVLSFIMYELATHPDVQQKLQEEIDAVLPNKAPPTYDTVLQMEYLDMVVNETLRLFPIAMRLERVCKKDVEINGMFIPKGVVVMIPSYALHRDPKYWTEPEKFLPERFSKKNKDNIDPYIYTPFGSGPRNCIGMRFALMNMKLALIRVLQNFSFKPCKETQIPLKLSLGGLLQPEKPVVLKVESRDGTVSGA
Procedure: And CYP3A4 inhibition was initially determined using a cell-free fluorescence-based assay at a final concentration of 1 μM (Table 7).
CYP3A4 enzyme assay. CYP3A4 enzyme activity was tested using Vivid™ CYP3A4 Green Screening Kit (ThermoFisher, #P2857) using the manufacturer's protocol. Briefly, CYP3A4 baculosomes and drugs were incubated 10 min at 37° C. Then Vivid® Substrates were added and the fluorescence (ex/em:485/520) were read every 1 min for 60 minute.

Compound	Gli I Inhibition (IC90 Prolif. dose) (Gli1 transcript)	Glycosylation (2 μM dose) (VEGFR2)	MB Proliferation (IC50/IC50 Itra) [1]	Proliferation (IC50/IC50 Itra) (HUVEC)	Proliferation (EC50/IC50 Itra) (HUVEC; footnote g: EC50 of analog relative to IC50 of itraconazole)	CYP3A4 Inhibition (compared to intracozanole at 1 μm) (CYP3A4)	IC50 (HUVEC) [µM]
CC/C=C\CCn1ncn(-c2ccc(N3CCN(c4ccc(OCC5COC(Cn6cncn6)(c6ccc(Cl)cc6Cl)O5)cc4)CC3)cc2)c1=O [Compound 7t, cis-(2S,4R)-4-[4-[4-[4-[[2-(2,4-Dichlorophenyl)-2-(1H-1,2,4-triazol-1-ylmethyl)-13-dioxolan-4-yl]methoxy]phenyl]-lpiperazinyl]phenyl]-2,4-dihydro-2-((Z)-hex-3-enyl)-3H-1,2,4-triazol-3-one]	++ (≤0.15)	−	0.94	0.73			
N#CCCCCCn1ncn(-c2ccc(N3CCN(c4ccc(OCC5COC(Cn6cncn6)(c6ccc(Cl)cc6Cl)O5)cc4)CC3)cc2)c1=O [Compound 7u, cis-(2S,4R)-4-[4-[4-[4-[[2-(2,4-Dichlorophenyl)-2-(1H-1,2,4-triazol-1-ylmethyl)-1,3-dioxolan-4-yl]methoxy]phenyl]-]piperazinyl]phenyl]-2,4-dihydro-2-(5-cyanopentyl)-3H-1,2,4-triazol-3-one]	+ (0.16 to 0.44)	++	0.84	0.18			
CCC1(Cn2ncn(-c3ccc(N4CCN(c5ccc(OCC6COC(Cn7cncn7)(c7ccc(Cl)cc7Cl)O6)cc5)CC4)cc3)c2=O)COC1 [Compound 7v, cis-(2S,4R)-4-[4-[4-[4-[[2-(2,4-Dichlorophenyl)-2-(1H-1,2,4-triazol-1-ylmethyl)-1,3-dioxolan-4-yl]methoxy]phenyl]-lpiperazinyl]phenyl]-2,4-dihydro-2-((3-ethyloxetan-3-yl)methyl)-3H-1,2,4-triazol-3-one]	+ (0.16 to 0.44)	++	0.74	0.77			
CC1(CCn2ncn(-c3ccc(N4CCN(c5ccc(OCC6COC(Cn7cncn7)(c7ccc(Cl)cc7Cl)O6)cc5)CC4)cc3)c2=O)N=N1 [Compound 7w, cis-(2S,4R)-4-[4-[4-[4-[[2-(2,4-Dichlorophenyl)-2-(1H-1,2,4-triazol-1-ylmethyl)-1,3-dioxolan-4-yl]methoxy]phenyl]-lpiperazinyl]phenyl]-2,4-dihydro-2-(2-(3-methyl-3H-diazirin-3-yl)ethyl)-3H-1,2,4-triazol-3-one]	+ (0.16 to 0.44)	+	1.32	>13.8			
CC1(CCCCCCCn2ncn(-c3ccc(N4CCN(c5ccc(OCC6COC(Cn7cncn7)(c7ccc(Cl)cc7Cl)O6)cc5)CC4)cc3)c2=O)N=N1 [Compound 7x, cis-(2S,4R)-4-[4-[4-[4-[[2-(2,4-Dichlorophenyl)-2-(1H-1,2,4-triazol-1-ylmethyl)-1,3-dioxolan-4-yl]methoxy]phenyl]-lpiperazinyl]phenyl]-2,4-dihydro-2-(7-(3-methyl-3H-diazirin-3-yl)heptyl)-3H-1,2,4-triazol-3-one]	− (≥0.45)	−	1.18		1.1^g		
O=c1[nH]ncn1-c1ccc(N2CCN(c3ccc(OC[C@H]4CO[C@](Cn5cncn5)(c5ccc(Cl)cc5Cl)O4)cc3)CC2)cc1 [Compound 17a, 4-(4-(4-(4-(((2R,4S)-2-((1H-1,2,4-triazol-1-yl)methyl)-2-(2,4-dichlorophenyl)-1,3-dioxolan-4-yl)methoxy)phenyl)piperazin-1-yl)phenyl)-1H-1,2,4-triazol-5(4H)-one]	++ (≤0.15)	−	0.89	2.78			
CCC(C)n1ncn(-c2ccc(N3CCN(c4ccc(OC[C@@H]5CO[C@@](Cn6ccnc6)(c6ccc(Cl)cc6Cl)O5)cc4)CC3)cc2)c1=O (stereo partly drawn) [Compound 233, 4-(4-(4-(4-(((2S,4R)-2-((1H-imidazol-1-yl)methyl)-2-(2,4-dichlorophenyl)-1,3-dioxolan-4-yl)methoxy)phenyl)piperazin-1-yl)phenyl)-1-sec-butyl-1H-1,2,4-triazol-5(4H)-one]						1.18	0.085
CCC(C)n1ncn(-c2ccc(N3CCN(c4ccc(OC[C@@H]5CO[C@@](Cn6cccn6)(c6ccc(Cl)cc6Cl)O5)cc4)CC3)cc2)c1=O (stereo partly drawn) [Compound 234, 4-(4-(4-(4-(((2S,4R)-2-((1H-pyrazol-1-yl)methyl)-2-(2,4-dichlorophenyl)-1,3-dioxolan-4-yl)methoxy)phenyl)piperazin-1-yl)phenyl)-1-sec-butyl-1H-1,2,4-triazol-5(4H)-one]						No inhibition	0.307
CCC(C)n1ncn(-c2ccc(N3CCN(c4ccc(OC[C@@H]5CO[C@@](Cn6ccnc6C)(c6ccc(Cl)cc6Cl)O5)cc4)CC3)cc2)c1=O (stereo partly drawn) [Compound 235, 1-sec-butyl-4-(4-(4-(4-(((2S,4R)-2-(2,4-dichlorophenyl)-2-((2-methyl-1H-imidazol-1-yl)methyl)-1,3-dioxolan-4-yl)methoxy)phenyl)piperazin-1-yl)phenyl)-1H-1,2,4-triazol-5(4H)-one]						0.85	0.173
CCC(C)n1ncn(-c2ccc(N3CCN(c4ccc(OC[C@@H]5CO[C@@](Cc6ccccc6)(c6ccc(Cl)cc6Cl)O5)cc4)CC3)cc2)c1=O (stereo partly drawn) [Compound 260, 4-(4-(4-(4-(((2R,4R)-2-benzyl-2-(2,4-dichlorophenyl)-1,3-dioxolan-4-yl)methoxy)phenyl)piperazin-1-yl)phenyl)-1-sec-butyl-1H-1,2,4-triazol-5(4H)-one]						No inhibition	
cis-(2R,4S)-4-[4-[4-[4-[[2-(2,4-Dichlorophenyl)-2-(1H-1,2,4-triazol-1-ylmethyl)-1,3-dioxolan-4-yl]methoxy]phenyl]-lpiperazinyl]phenyl]-2,4-dihydro-2-(pent-4-ynyl)-3H-1,2,4-triazol-3-one [Compound 7r]	++ (≤0.15)	−	0.71	0.14			
